Test results published in patent US20260274833A1 (NiKang Therapeutics, Inc., priority 2022, published 2026).

Target: T1, CDK2 (Homo sapiens, UniProt P24941)
T1 construct: endogenous in cells; host or cells: OVCAR3 cells
Assay: Phospho-RB measurement in OVCAR3 cells (HTRF phospho-RB cellular kit)
Type: cell-based
Details: inhibition of RB phosphorylation at S807/811 (HTRF, TR-FRET ratio 665/620), 24 h compound treatment, 0.3 to 10,000 nM
Procedure: Biological Example 1: Phospho-RB Measurement in OVCAR3 Cells
The ability of compounds of Formula (I) to inhibit CDK2 was determined in OVCAR3 cells by measuring inhibition of phosphorylation of RB protein at S780 and S807/811. Phosphorylation of RB protein at S807/811 were measured using HTRF phospho-RB cellular kits (Cat #64RBS807PEG) from Cisbio.
On Day 1, OVCAR3 cells were seeded into 96-well tissue-culture treated plates at 20,000 cells/well in 200 μL and incubated overnight at 37° C. in CO2 atmosphere. On Day 2, the cells were treated with test compounds at concentrations from 0.3 to 10,000 nM using HP D300 digital dispenser. Twenty-four hours after compound treatment, cell culture media was removed by flicking the plate and tapping the plate against clean paper towel. Immediately 30 μL 1× lysis buffer was supplemented from the kit and the plate was incubated at room temperature on shaker for 30 min. After homogenization by pipetting up and down, 8 μL cell lysate from 96-well cell culture plate was transferred to 384-well small volume white detection plate. 2 μL premixed detection solution was added and the plate was covered with sealer. To prepare the detection solution, d2 conjugated-phospho-RB antibody and Eu-cryptate conjugated phosphor-RB antibody were diluted into detection buffer following manufacturer's instruction.
Detection plates were incubated for 4 h at room temperature and read on ClarioStar (BMG Labtech) in TR-FRET mode ([…]). The TR-FRET ratio (665 nM/620 nM) was plotted against the compound concentration and normalized to DMSO controls. Half maximal inhibition concentration (IC50) values are calculated with a four-parameter logistic fit using GraphPad Prism (version 8; La Jolla, CA).

COc1cccc2c1CN(S(=O)(=O)Nc1cccc(-c3nc(C4(C)CCOCC4)sc3-c3ccnc(NC4CC5(C4)CS(=O)(=O)C5)n3)c1F)C2 [Example 2, N-(3-(5-(2-((2,2-dioxido-2-thiaspiro-[3.3]-heptan-6-yl)amino)pyrimidin-4-yl)-2-(4-methyltetrahydro-2H-pyran-4-yl)-thiazol-4-yl)-2-fluorophenyl)-4-methoxyisoindoline-2-sulfonamide]
IC50: 0.0755 µM

CC1(c2nc(-c3cccc(NS(=O)(=O)N4Cc5cccc(C(F)(F)F)c5C4)c3F)c(-c3ccnc(NC4CC5(C4)CS(=O)(=O)C5)n3)s2)CCOCC1 [Example 3, N-(3-(5-(2-((2,2-dioxido-2-thiaspiro-[3.3]-heptan-6-yl)amino)pyrimidin-4-yl)-2-(4-methyltetrahydro-2H-pyran-4-yl)thiazol-4-yl)-2-fluorophenyl)-4-(trifluoromethyl) isoindoline-2-sulfonamide]
IC50: 0.0486 µM

O=S1(=O)CC2(CC(Nc3nccc(-c4sc(N5C6CCC5COC6)nc4-c4cccc(NS(=O)(=O)N5Cc6ccccc6C5)c4F)n3)C2)C1 [Example 4, N-(3-(2-(3-oxa-8-azabicyclo[3.2.1]octan-8-yl)-5-(2-((2,2-dioxido-2-thiaspiro-[3.3]heptan-6-yl)amino)pyrimidin-4-yl)thiazol-4-yl)-2-fluorophenyl)-isoindoline-2-sulfonamide]
IC50: 0.139 µM

CC1(c2nc(-c3cccc(NS(=O)(=O)N4CCc5ccc(C#N)cc54)c3F)c(-c3ccnc(NC4CC5(C4)CS(=O)(=O)C5)n3)s2)CCOCC1 [Example 5, 6-cyano-N-(3-(5-(2-((2,2-dioxido-2-thiaspiro-[3.3]heptan-6-yl)amino)-pyrimidin-4-yl)-2-(4-methyltetrahydro-2H-pyran-4-yl)thiazol-4-yl)-2-fluorophenyl) indoline-1-sulfonamide]
IC50: 0.0327 µM

N#Cc1ccc2c(c1)N(S(=O)(=O)Nc1cccc(-c3nc(N4C5CCC4COC5)sc3-c3ccnc(NC4CC5(C4)CS(=O)(=O)C5)n3)c1F)CC2 [Example 6, N-(3-(2-(3-oxa-8-azabicyclo[3.2.1]octan-8-yl)-5-(2-((2,2-dioxido-2-thiaspiro-[3.3]heptan-6-yl)amino)pyrimidin-4-yl)thiazol-4-yl)-2-fluorophenyl)-6-cyanoindoline-1-sulfonamide]
IC50: 0.109 µM

COc1cccc2c1CN(S(=O)(=O)Nc1cccc(-c3nc(C4(C)CCOCC4)sc3-c3ccnc(N[C@H]4[C@@H]5CS(=O)(=O)C[C@@H]54)n3)c1F)C2 [Example 7, N-(3-(5-(2-(((1R, 5S,6r)-3,3-dioxido-3-thiabicyclo[3.1.0]hexan-6-yl)amino)-pyrimidin-4-yl)-2-(4-methyltetrahydro-2H-pyran-4-yl)thiazol-4-yl)-2-fluorophenyl)-4-methoxyisoindoline-2-sulfonamide]
IC50: 0.0092 µM

CC1(c2nc(-c3cccc(NS(=O)(=O)N4Cc5cccc(C(F)(F)F)c5C4)c3F)c(-c3ccnc(N[C@H]4[C@@H]5CS(=O)(=O)C[C@@H]54)n3)s2)CCOCC1 [Example 8, N-(3-(5-(2-(((1R,5S, 6r)-3,3-dioxido-3-thiabicyclo[3.1.0]hexan-6-yl)amino)-pyrimidin-4-yl)-2-(4-methyltetrahydro-2H-pyran-4-yl)thiazol-4-yl)-2-fluorophenyl)-4-(trifluoromethyl)-isoindoline-2-sulfonamide]
IC50: 0.0152 µM

N#Cc1ccc2c(c1)N(S(=O)(=O)Nc1cccc(-c3nc(C45CC(C4)C5)sc3-c3ccnc(NC4CC5(C4)CS(=O)(=O)C5)n3)c1F)CC2 [Example 9, N-(3-(2-(bicyclo [1.1.1]pentan-1-yl)-5-(2-((2,2-dioxido-2-thiaspiro[3.3]heptan-6-yl)amino)-pyrimidin-4-yl)thiazol-4-yl)-2-fluorophenyl)-6-cyanoindoline-1-sulfonamide]
IC50: 0.104 µM

CC1(c2nc(-c3cccc(NS(=O)(=O)N4CCc5ccc(C#N)cc54)c3F)c(-c3ccnc(N[C@H]4[C@@H]5CS(=O)(=O)C[C@@H]54)n3)s2)CCOCC1 [Example 10]
IC50: 0.073 µM

O=S1(=O)C[C@@H]2[C@H](C1)[C@H]2Nc1nccc(-c2sc(C34CC(C3)C4)nc2-c2cccc(NS(=O)(=O)N3Cc4ccc(CO)cc4C3)c2F)n1 [Example 11, N-(3-(2-(bicyclo [1.1.1]pentan-1-yl)-5-(2-(((1R,5S,6r)-3,3-dioxido-3-thiabicyclo-[3.1.0]hexan-6-yl)amino)pyrimidin-4-yl)thiazol-4-yl)-2-fluorophenyl)-5-(hydroxymethyl) isoindoline-2-sulfonamide]
IC50: 0.081 µM

CC1(c2nc(-c3cccc(NS(=O)(=O)N4Cc5ccc(CO)cc5C4)c3F)c(-c3ccnc(N[C@H]4[C@@H]5CS(=O)(=O)C[C@@H]54)n3)s2)CCOCC1 [Example 12, N-(3-(5-(2-(((1R, 5S,6r)-3,3-dioxido-3-thiabicyclo[3.1.0]hexan-6-yl)amino)-pyrimidin-4-yl)-2-(4-methyltetrahydro-2H-pyran-4-yl)thiazol-4-yl)-2-fluorophenyl)-5-(hydroxymethyl)-isoindoline-2-sulfonamide]
IC50: 0.0478 µM

O=S1(=O)C[C@@H]2[C@H](C1)[C@H]2Nc1nccc(-c2sc(C34CC(C3)C4)nc2-c2cccc(NS(=O)(=O)N3CCc4c(CO)cccc43)c2F)n1 [Example 13, N-(3-(2-(bicyclo [1.1.1]pentan-1-yl)-5-(2-(((1R,5S,6r)-3,3-dioxido-3-thia-bicyclo[3.1.0]-hexan-6-yl)amino)-pyrimidin-4-yl)thiazol-4-yl)-2-fluorophenyl)-4-(hydroxymethyl)-indoline-1-sulfonamide]
IC50: 0.0577 µM

N#Cc1ccc2c(c1)N(S(=O)(=O)Nc1cccc(-c3nc(C45CC(C4)C5)sc3-c3ccnc(N[C@H]4[C@@H]5CS(=O)(=O)C[C@@H]54)n3)c1F)CC2 [Example 14, N-(3-(2-(bicyclo [1.1.1]pentan-1-yl)-5-(2-(((1R,5S,6r)-3,3-dioxido-3-thiabicyclo-[3.1.0]-hexan-6-yl)amino)pyrimidin-4-yl)thiazol-4-yl)-2-fluorophenyl)-6-cyanoindoline-1-sulfonamide]
IC50: 0.124 µM

CN1CC2CCC(C1)N2c1nc(-c2cccc(NS(=O)(=O)N3Cc4ccccc4C3)c2F)c(-c2ccnc(NC3CC4(C3)CS(=O)(=O)C4)n2)s1 [Example 15, N-(3-(5-(2-((2,2-dioxido-2-thiaspiro-[3.3]-heptan-6-yl)amino)pyrimidin-4-yl)-2-(3-methyl-3,8-diazabicyclo[3.2.1]-octan-8-yl)thiazol-4-yl)-2-fluorophenyl)-isoindoline-2-sulfonamide]
IC50: 0.0725 µM

CN1CC2CCC(C1)N2c1nc(-c2cccc(NS(=O)(=O)N3CCc4ccc(C#N)cc43)c2F)c(-c2ccnc(NC3CC4(C3)CS(=O)(=O)C4)n2)s1 [Example 16, 6-cyano-N-(3-(5-(2-((2,2-dioxido-2-thiaspiro[3.3]heptan-6-yl)amino)-pyrimidin-4-yl)-2-(3-methyl-3,8-diazabicyclo[3.2.1]octan-8-yl)thiazol-4-yl)-2-fluorophenyl) indoline-1-sulfonamide]
IC50: 0.0624 µM

CN1CC2CCC(C1)N2c1nc(-c2cccc(NS(=O)(=O)N3CCc4ccccc43)c2F)c(-c2ccnc(NC3CC4(C3)CS(=O)(=O)C4)n2)s1 [Example 17, N-(3-(5-(2-((2,2-dioxido-2-thiaspiro-[3.3]-heptan-6-yl)amino)pyrimidin-4-yl)-2-(3-methyl-3,8-diazabicyclo[3.2.1]-octan-8-yl)thiazol-4-yl)-2-fluorophenyl)-indoline-1-sulfonamide]
IC50: 0.015 µM

CN1CC2CCC(C1)N2c1nc(-c2cccc(NS(=O)(=O)N3Cc4cccc(C(F)F)c4C3)c2F)c(-c2ccnc(NC3CC4(C3)CS(=O)(=O)C4)n2)s1 [Example 18, 4-(difluoromethyl)-N-(3-(5-(2-((2,2-dioxido-2-thiaspiro [3.3]heptan-6-yl)amino)pyrimidin-4-yl)-2-(3-methyl-3,8-diazabicyclo [3.2.1]octan-8-yl)thiazol-4-yl)-2-fluorophenyl)-isoindoline-2-sulfonamide]
IC50: 0.0248 µM

O=S1(=O)CC2(CC(Nc3nccc(-c4sc(C56CC(C5)C6)nc4-c4cccc(NS(=O)(=O)N5CCc6ccc(C(F)(F)F)cc65)c4F)n3)C2)C1 [Example 19, N-(3-(2-(bicyclo [1.1.1]pentan-1-yl)-5-(2-((2,2-dioxido-2-thiaspiro[3.3]heptan-6-yl)amino)-pyrimidin-4-yl)thiazol-4-yl)-2-fluorophenyl)-6-(trifluoromethyl)-indoline-1-sulfonamide]
IC50: 0.12 µM

COc1ccc2c(c1)N(S(=O)(=O)Nc1cccc(-c3nc(C45CC(C4)C5)sc3-c3ccnc(NC4CC5(C4)CS(=O)(=O)C5)n3)c1F)CC2 [Example 20, N-(3-(2-(bicyclo [1.1.1]pentan-1-yl)-5-(2-((2,2-dioxido-2-thiaspiro[3.3]heptan-6-yl)amino)-pyrimidin-4-yl)thiazol-4-yl)-2-fluorophenyl)-6-methoxyindoline-1-sulfonamide]
IC50: 0.208 µM
